Target: T1, human CRHR2-alpha (Homo sapiens, UniProt Q13324)
T1 sequence (Q13324 1-411): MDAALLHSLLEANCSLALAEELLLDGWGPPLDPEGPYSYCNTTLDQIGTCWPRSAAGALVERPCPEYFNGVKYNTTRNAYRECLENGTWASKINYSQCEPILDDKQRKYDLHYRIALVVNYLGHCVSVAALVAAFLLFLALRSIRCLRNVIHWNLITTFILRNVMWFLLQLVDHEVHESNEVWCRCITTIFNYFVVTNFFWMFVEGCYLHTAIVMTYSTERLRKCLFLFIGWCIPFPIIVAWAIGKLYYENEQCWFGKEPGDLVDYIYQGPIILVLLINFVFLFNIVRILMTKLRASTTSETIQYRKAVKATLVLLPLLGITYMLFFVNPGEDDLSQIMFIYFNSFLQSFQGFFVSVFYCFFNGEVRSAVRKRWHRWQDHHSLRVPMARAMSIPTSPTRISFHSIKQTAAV
Experiment: cAMP functional assay for human CRHR2 (LANCE Ultra cAMP, TR-FRET)
Format: cell-based
Conditions: CHO-K1 cells expressing human CRHR2-alpha, agonist human urocortin2 at EC80, cAMP; read-out: IC50 against CRHR2
Experimental: cAMP functional assay for human CRHR1 and CRHR2
The ability of the compounds of this invention to inhibit either CRHR2 or CRHR1 is assessed by 3′,5′-cyclic adenosine monophosphate (cAMP) production in cells using the LANCE Ultra cAMP assay kit (ParkinElmer), which are designed based on the homogeneous time-resolved fluorescence resonance energy transfer (TR-FRET) immunoassay.
CHO-K1 (Chinese hamster ovary) cells stably expressing either human CRHR2-alpha (DiscoveRX, Cat. 95-0048C2) or human CRHR1-beta (DiscoveRX, Cat. 95-0047C2) are grown in HAM's F12 media supplemented with 10% fetal bovine serum (FBS), 100 units/mL penicillin, 100 microg/mL hygromycin and 0.5 microg/mL geneticin at 37° C. in 5% CO2 humidified incubator to 80% confluence. After 7 hours starvation treatment in culture media containing 0.1% FBS, the cells are washed with Hanks balanced salt solution (HBSS) and cryopreserved.
For cAMP assay, frozen cells are thawed and washed with HBSS, followed by resuspended in assay buffer (HBSS containing 0.1% bovine serum albumin, 0.5 mM isobutylmethylxanthine and 5 mM Hepes, pH 7.4) at the appropriate concentration for the assay. The cell suspensions are plated on 384-well microplates (Greiner Bio-One) at a density of 4,000 cells per well. After preincubating the cells with various concentrations of the compounds for 30 min at 25° C., an assay buffer containing EC80 concentration of each agonist is added and the cells are incubated for 30 min at 25° C. Human urocortin2 (Peptide Institute) and CRF (Peptide Institute) are used as agonists for CRHR2 and CRHR1, respectively. For the termination of assay, europium-labeled cAMP tracer and ULight (registered trademark) dye labeled cAMP antibodies, both prepared with Lance-Ultra cAMP detection reagent (Perkin Elmer) are added in the plate and incubate for 60 min at 25° C. After incubation, TR-FRET signal is detected by EnVision plate reader (PerkinElmer). The IC50 values for compounds are calculated from dose-response curves by fitting the percent inhibition using XLfit (ID Business Solutions).

With `Cc1ncc(Cl)cc1C(=O)N[C@H]1CC[C@H](Cn2c(=O)n(CC(=O)c3ccccc3)c3ccccc32)CC1` [Example 5, 5-chloro-2-methyl-N-((1r,4r)-4-((2-oxo-3-(2-oxo-2-phenylethyl)-2,3-dihydro-1H-benzo[d]imidazol-1-yl)methyl)cyclohexyl)nicotinamide] the IC50 was less than 300 nM.
`COc1ccc(C(=O)Cn2c(=O)n(C[C@H]3CC[C@H](NC(=O)c4cc(Cl)cnc4C)CC3)c3ccccc32)cc1` [Example 9, 5-chloro-N-((1r,4r)-4-((3-(2-(4-methoxyphenyl)-2-oxoethyl)-2-oxo-2,3-dihydro-1H-benzo[d]imidazol-1-yl)methy)cyclohexyl)-2-methylnicotinamide] was tested, and the IC50 was less than 300 nM.
With `COc1ccccc1C(=O)Cn1c(=O)n(C[C@H]2CC[C@H](NC(=O)c3cc(Cl)cnc3C)CC2)c2ccccc21` [Example 10, 5-chloro-N-((1r,4r)-4-((3-(2-(2-methoxyphenyl)-2-oxoethyl)-2-oxo-2,3-dihydro-1H-benzo[d]imidazol-1-yl)methyl)cyclohexyl)-2-methylnicotinamide] the IC50 was less than 300 nM.
`Cc1ncc(Cl)cc1C(=O)N[C@H]1CC[C@H](Cn2c(=O)n(CC(=O)c3ccc(F)cc3F)c3ccccc32)CC1` [Example 12, 5-chloro-N-((1r,4r)-4-((3-(2-(2,4-difluorophenyl)-2-oxoethyl)-2-oxo-2,3-dihydro-1H-benzo[d]imidazol-1-yl)methyl)cyclohexyl)-2-methylnicotinamide] showed an IC50 of less than 300 nM.
In the case of `Cc1ncc(Cl)cc1C(=O)N[C@H]1CC[C@H](Cn2c(=O)n(CC(=O)c3ccc(C#N)cc3)c3ccccc32)CC1` [Example 13, 5-chloro-N-((1r,4r)-4-((3-(2-(4-cyanophenyl)-2-oxoethyl)-2-oxo-2,3-dihydro-1H-benzo[d]imidazol-1-yl)methyl)cyclohexyl)-2-methylnicotinamide], the IC50 is reported as less than 300 nM.
Work on `Cc1ncc(Cl)cc1C(=O)N[C@H]1CC[C@H](Cn2c(=O)n(-c3ccccc3F)c3ccccc32)CC1` [Example 33, 5-chloro-N-((1r,4r)-4-((3-(2-fluorophenyl)-2-oxo-2,3-dihydro-1H-benzo[d]imidazol-1-yl)methyl)cyclohexyl)-2-methylnicotinamide] yielded an IC50 of less than 300 nM.
Compound `Cc1ncc(Cl)cc1C(=O)N[C@H]1CC[C@H](Cn2c(=O)n(-c3ccc(OCC(F)F)nc3)c3ccccc32)CC1` [Example 35, 5-chloro-N-((1r,4r)-4-((3-(6-(2,2-difluoroethoxy)pyridin-3-yl)-2-oxo-2,3-dihydro-1H-benzo[d]imidazol-1-yl)methyl)cyclohexyl)-2-methylnicotinamide] has an IC50 of less than 300 nM.
Work on `CCOc1ccc(-n2c(=O)n(C[C@H]3CC[C@H](NC(=O)c4cc(Cl)cnc4C)CC3)c3ccccc32)cn1` [Example 36, 5-chloro-N-((1r,4r)-4-((3-(6-ethoxypyridin-3-yl)-2-oxo-2,3-dihydro-1H-benzo[d]imidazol-1-yl)methyl)cyclohexyl)-2-methylnicotinamide] yielded an IC50 of less than 300 nM.
`CCn1nc2ccccc2c1C(=O)N[C@H]1CC[C@H](Cn2c(=O)n(-c3ccc(OC)cc3)c3ccccc32)CC1` [Example 37, 2-ethyl-N-((1r,4r)-4-((3-(4-methoxyphenyl)-2-oxo-2,3-dihydro-1H-benzo[d]imidazol-1-yl)methyl)cyclohexyl)-2H-indazole-3-carboxamide] gave an IC50 of less than 300 nM.
Work on `CCn1nc2ccccc2c1C(=O)N[C@H]1CC[C@H](Cn2c(=O)n(-c3ccc(C)nc3)c3ccccc32)CC1` [Example 38, 2-ethyl-N-((1r,4r)-4-((3-(6-methylpyridin-3-yl)-2-oxo-2,3-dihydro-1H-benzo[d]imidazol-1-yl)methyl)cyclohexyl)-2H-indazole-3-carboxamide] yielded an IC50 of less than 300 nM.
`CCn1nc2ccccc2c1C(=O)N[C@H]1CC[C@H](Cn2c(=O)n(-c3ccc(OC)nc3)c3ccccc32)CC1` [Example 39, 2-ethyl-N-((1r,4r)-4-((3-(6-methoxypyridin-3-yl)-2-oxo-2,3-dihydro-1H-benzo[d]imidazol-1-yl)methyl)cyclohexyl)-2H-indazole-3-carboxamide] was tested, and the IC50 was less than 300 nM.
Work on `CCn1nc2ccccc2c1C(=O)N[C@H]1CC[C@H](Cn2c(=O)n(-c3ccc(C(C)=O)cc3)c3ccccc32)CC1` [Example 41, N-((1r,4r)-4-((3-(4-acetylphenyl)-2-oxo-2,3-dihydro-1H-benzo[d]imidazol-1-yl)methyl)cyclohexyl)-2-ethyl-2H-indazole-3-carboxamide] yielded an IC50 of less than 300 nM.
Compound `CCn1nc2ccccc2c1C(=O)N[C@H]1CC[C@H](Cn2c(=O)n(-c3ccc(C(C)O)cc3)c3ccccc32)CC1` (stereo partly shown) [Example 42, 2-ethyl-N-((1r,4r)-4-((3-(4-(1-hydroxyethyl)phenyl)-2-oxo-2,3-dihydro-1H-benzo[d]imidazol-1-yl)methyl)cyclohexyl)-2H-indazole-3-carboxamide] has an IC50 of less than 300 nM.
Work on `COc1ccc(-n2c(=O)n(C[C@H]3CC[C@H](NC(=O)c4cc(Cl)cnc4C)CC3)c3ccccc32)cc1OC` [Example 44, 5-chloro-N-((1r,4r)-4-((3-(3,4-dimethoxyphenyl)-2-oxo-2,3-dihydro-1H-benzo[d]imidazol-1-yl)methyl)cyclohexyl)-2-methylnicotinamide] yielded an IC50 of less than 300 nM.
Compound `Cc1ncc(Cl)cc1C(=O)N[C@H]1CC[C@H](Cn2c(=O)n(-c3ccc(F)cc3F)c3ccccc32)CC1` [Example 46, 5-chloro-N-((1r,4r)-4-((3-(2,4-difluorophenyl)-2-oxo-2,3-dihydro-1H-benzo[d]imidazol-1-yl)methyl)cyclohexyl)-2-methylnicotinamide] has an IC50 of less than 300 nM.
Work on `Cc1ncc(Cl)cc1C(=O)N[C@H]1CC[C@H](Cn2c(=O)n(-c3ccc(N(C)C)nc3)c3ccccc32)CC1` [Example 52, 5-chloro-N-((1r,4r)-4-((3-(6-(dimethylamino)pyridin-3-yl)-2-oxo-2,3-dihydro-1H-benzo[d]imidazol-1-yl)methyl)cyclohexyl)-2-methylnicotinamide] yielded an IC50 of less than 300 nM.
Compound `COCCN(C)c1ccc(-n2c(=O)n(C[C@H]3CC[C@H](NC(=O)c4cc(Cl)cnc4C)CC3)c3ccccc32)cn1` [Example 53, 5-chloro-N-((1r,4r)-4-((3-(6-((2-methoxyethyl)(methyl)amino)pyridin-3-yl)-2-oxo-2,3-dihydro-1H-benzo[d]imidazol-1-yl)methyl)cyclohexyl)-2-methylnicotinamide] has an IC50 of less than 300 nM.
For `Cc1ncc(Cl)cc1C(=O)N[C@H]1CC[C@H](Cn2c(=O)n(-c3ccc(N4CCOCC4)nc3)c3ccccc32)CC1` [Example 54, 5-chloro-2-methyl-N-((1r,4r)-4-((3-(6-morpholinopyridin-3-yl)-2-oxo-2,3-dihydro-1H-benzo[d]imidazol-1-yl)methyl)cyclohexyl) nicotinamide], the IC50 was less than 300 nM.
`Cc1ncc(Cl)cc1C(=O)N[C@H]1CC[C@H](Cn2c(=O)n(-c3ccc(N4CCN(C)CC4)nc3)c3ccccc32)CC1` [Example 55, 5-chloro-2-methyl-N-((1r,4r)-4-((3-(6-(4-methylpiperazin-1-yl)pyridin-3-yl)-2-oxo-2,3-dihydro-1H-benzo[d]imidazol-1-yl)methyl)cyclohexyl)nicotinamide] gave an IC50 of less than 300 nM.
`Cc1ccc(-n2c(=O)n(C[C@H]3CC[C@H](NC(=O)c4cc(Cl)cnc4C)CC3)c3cccc(C)c32)cn1` [Example 57, 5-chloro-2-methyl-N-((1r,4r)-4-((4-rrethyl-3-(6-methylpyridin-3-yl)-2-oxo-2,3-dihydro-1H-benzo[d]imidazol-1-yl)methyl)cyclohexyl)nicotinamide] gave an IC50 of less than 300 nM.
Work on `COc1ccc(-n2c(=O)n(C[C@H]3CC[C@H](NC(=O)c4cc(Cl)cnc4C)CC3)c3cccc(C)c32)cn1` [Example 58, 5-chloro-N-((1r,4r)-4-((3-(6-methoxypyridin-3-yl)-4-methyl-2-oxo-2,3-dihydro-1H-benzo[d]imidazol-1-yl)methyl)cyclohexyl)-2-methylnicotinamide] yielded an IC50 of less than 300 nM.
In the case of `Cc1ncc(Cl)cc1C(=O)N[C@H]1CC[C@H](Cn2c(=O)n(-c3ccc(Br)nc3)c3ccccc32)CC1` [Example 66, N((1r,4r)-4-((3-(6-bromopyridin-3-yl)-2-oxo-2,3-dihydro-1H-benzo[d]imidazol-1-yl)methyl)cyclohexyl)-5-chloro-2-methylnicotinamide], the IC50 is reported as less than 300 nM.

Source: US11802120B2, “Fused cyclic urea derivatives as CRHR2 antagonist” (RaQualia Pharma Inc., priority 2018, dated 2023)
